In patent US20220267349A1, “HETEROCYCLIC COMPOUNDS” (Hoffmann-La Roche Inc., priority 2019, published 2022) one finds IC50 data, which are given here for 17 compounds.

pIC50: −log10 of the molar value.

In general, pIC50 refers to the negative decadic logarithm of the IC50, by convention in mol/L. Read a high pIC50 as a low IC50.

The target in the assay is T1, MAGL (Homo sapiens, UniProt Q99685).
T1 sequence (Q99685 1-303): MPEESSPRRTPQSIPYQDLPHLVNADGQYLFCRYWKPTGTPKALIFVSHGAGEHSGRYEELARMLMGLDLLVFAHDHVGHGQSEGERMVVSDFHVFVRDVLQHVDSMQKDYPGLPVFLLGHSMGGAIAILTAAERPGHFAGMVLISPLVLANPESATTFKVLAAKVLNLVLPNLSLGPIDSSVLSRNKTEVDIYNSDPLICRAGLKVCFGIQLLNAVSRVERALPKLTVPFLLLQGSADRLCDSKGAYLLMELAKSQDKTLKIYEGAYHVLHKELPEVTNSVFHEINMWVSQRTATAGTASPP
The experiment in a line: 2-AG assay (MAGL inhibitory activity, hydrolysis of 2-arachidonoylglycerol followed by mass spectrometry). Type of assay: biochemical. As to conditions: 50 pM MAGL, 8 μM 2-arachidonoylglycerol, 15 min preincubation, 30 min incubation at RT. The method, then:
Compounds were profiled for MAGL inhibitory activity by determining the enzymatic activity by following the hydrolysis of the natural substrate 2-arachidonoylglycerol resulting in arachidonic acid, which can be followed by mass spectrometry. This assay is hereinafter abbreviated “2-AG assay”.
The 2-AG assay was carried out in 384 well assay plates (PP, Greiner Cat #784201) in a total volume of 20 μL. Compound dilutions were made in 100% DMSO (VWR Chemicals 23500.297) in a polypropylene plate in 3-fold dilution steps to give a final concentration range in the assay from 12.5 μM to 0.8 pM. 0.25 μL compound dilutions (100% DMSO) were added to 9 μL MAGL in assay buffer (50 mM TRIS (GIBCO, 15567-027), 1 mM EDTA (Fluka, 03690-100 ml), 0.01% (v/v) Tween. After shaking, the plate was incubated for 15 min at RT. To start the reaction, 10 μL 2-arachidonoylglycerol in assay buffer was added. The final concentrations in the assay was 50 pM MAGL and 8 μM 2-arachidonoylglyerol. After shaking and 30 min incubation at RT, the reaction was quenched by the addition of 40 μL of acetonitrile containing 4 μM of d8-arachidonic acid. The amount of arachidonic acid was traced by an online SPE system (Agilent Rapidfire) coupled to a triple quadrupole mass spectrometer (Agilent 6460). A C18 SPE cartridge (G9205A) was used in an acetonitrile/water liquid setup. The mass spectrometer was operated in negative electrospray mode following the mass transitions 303.1→259.1 for arachidonic acid and 311.1→267.0 for d8-arachidonic acid. The activity of the compounds was calculated based on the ratio of intensities [arachidonic acid/d8-arachidonic acid].
Compound `O=C1CN[C@H]2CCN(C(=O)N3CC(OCc4ccc(C(F)(F)F)cc4F)C3)C[C@H]2N1` (single isomer, unassigned) [Example 13, (4aR,8aS)- or (4aR,8aS)-6-[3-[[2-Fluoro-4-(trifluoromethyl)phenyl]methoxy]azetidine-1-carbonyl]-1,2,4,4a,5,7,8,8a-octahydropyrido[3,4-b]pyrazin-3-one] gave a pIC50 of 6.80.
`O=C1CC[C@H]2CCN(C(=O)N3CCC(C(c4ccccc4)c4ccccc4)CC3)C[C@H]2N1` (racemic) [Example 10, rac-(4aS,8aS)-7-(4-Benzhydrylpiperidine-1-carbonyl)octahydro-1,7-naphthyridin-2(1H)-one] showed a pIC50 of 10.22.
`O=C1COC2=C(CN(C(=O)N3CCC(Cc4ccc(C(F)(F)F)cc4)CC3)CC2)N1` [Example 7, 6-[4-[[4-(Trifluoromethyl)phenyl]methyl]piperidine-1-carbonyl]-4,5,7,8-tetrahydropyrido[4,3-b][1,4]oxazin-3-one] showed a pIC50 of 7.29.
As for `O=C1CN[C@@H]2CCN(C(=O)N3CC(OCc4ccc(C(F)(F)F)cc4F)C3)C[C@@H]2N1` (single isomer, unassigned) [Example 14, (4aS,8aR)- or (4aS,8aR)-6-[3-[[2-Fluoro-4-(trifluoromethyl)phenyl]methoxy]azetidine-1-carbonyl]-1,2,4,4a,5,7,8,8a-octahydropyrido[3,4-b]pyrazin-3-one], the pIC50 is 5.84. Against the preceding compound, the pIC50 is 1.45 log units lower.
Turning to `O=C1CO[C@@H]2[C@@H](CN(C(=O)N3CC(OCc4ccc(C(F)(F)F)cc4F)C3)CC2(F)F)N1` (single isomer, unassigned) [Example 4], the pIC50 was 5.86.
As to `O=C1CO[C@@H]2[C@@H](CN(C(=O)N3CC(c4ccc(CC(F)(F)F)cc4)C3)CC2(F)F)N1` (single isomer, unassigned) [Example 6], the pIC50 was 6.19.
`CC1CN(C(=O)N2CC(OCc3ccc(C(F)(F)F)cc3F)C2)CC2NC(=O)COC12` [Example 2, rel-(4aS,8R,8aR)-6-[3-[[2-Fluoro-4-(trifluoromethyl)phenyl]methoxy]azetidine-1-carbonyl]-8-methyl-4,4a,5,7,8,8a-hexahydropyrido[4,3-b][1,4]oxazin-3-one] had a pIC50 of 6.93.
For `O=C1CO[C@H]2CCN(C(=O)N3CC(OCc4ccc(C(F)(F)F)cc4F)C3)C[C@@]2(O)N1` [Example 16, (4aS,8aS)-6-[3-[[2-fluoro-4-(trifluoromethyl)phenyl]methoxy]azetidine-1-carbonyl]-4a-hydroxy-5,7,8,8a-tetrahydro-4H-pyrido[4,3-b][1,4]oxazin-3-one], the pIC50 was 6.10.
Regarding `O=C1CN[C@H]2CCN(C(=O)N3CC(OCc4ccc(C(F)(F)F)cc4F)C3)C[C@H]2N1` (racemic) [Example 12, rac-(4aR,8aS)-6-[3-[[2-Fluoro-4-(trifluoromethyl)phenyl]methoxy]azetidine-1-carbonyl]-1,2,4,4a,5,7,8,8a-octahydropyrido[3,4-b]pyrazin-3-one], the pIC50 is 7.14. Against the preceding compound, the pIC50 is 1.04 log units higher.
`O=C1CC[C@H]2CCN(C(=O)N3CC(OCc4ccc(C(F)(F)F)cc4F)C3)C[C@H]2N1` (racemic) [Example 11, rac-(4aS,8aS)-7-[3-[[2-Fluoro-4-(trifluoromethyl)phenyl]methoxy]azetidine-1-carbonyl]-1,3,4,4a,5,6,8,8a-octahydro-1,7-naphthyridin-2-one] gave a pIC50 of 8.51.
For `C[C@H]1CN(C(=O)N2CC(OCc3ccc(C(F)(F)F)cc3F)C2)C[C@H]2NC(=O)CO[C@@H]12` (relative stereo) [Example 1, rel-(4aR,8S,8aS)-6-[3-[[2-Fluoro-4-(trifluoromethyl)phenyl]methoxy]azetidine-1-carbonyl]-8-methyl-4,4a,5,7,8,8a-hexahydropyrido[4,3-b][1,4]oxazin-3-one], the pIC50 was 8.36.
Consider `O=C(N1CCc2ccc(=O)[nH]c2C1)N1CC(OCc2ccc(C(F)(F)F)cc2F)C1` [Example 9, 7-[3-[[2-Fluoro-4-(trifluoromethyl)phenyl]methoxy]azetidine-1-carbonyl]-1,5,6,8-tetrahydro-1,7-naphthyridin-2-one], for which the pIC50 was 7.84.
The compound `O=C(N1CCC(C(c2ccccc2)c2ccccc2)CC1)N1CCc2ccc(=O)[nH]c2C1` [Example 8, 7-(4-Benzhydrylpiperidine-1-carbonyl)-1,5,6,8-tetrahydro-1,7-naphthyridin-2-one] had a negative-log IC50 (pIC50) of 8.52. This pIC50 is 0.68 log units higher than that of the compound before.
`O=C1CC(O)[C@H]2CCN(C(=O)N3CC(OCc4ccc(C(F)(F)F)cc4F)C3)C[C@H]2N1` (mixture of isomers) [Example 18, rac-(4aS,8aS)-7-[3-[[2-fluoro-4-(trifluoromethyl)phenyl]methoxy]azetidine-1-carbonyl]-4-hydroxy-1,3,4,4a,5,6,8,8a-octahydro-1,7-naphthyridin-2-one] gave a pIC50 of 5.96. This pIC50 is 2.56 log units lower than that of the compound before.
`O=C1CSC2=C(CN(C(=O)N3CC(OCc4ccc(C(F)(F)F)cc4F)C3)CC2)N1` [Example 17, 6-[3-[[2-fluoro-4-(trifluoromethyl)phenyl]methoxy]azetidine-1-carbonyl]-4,5,7,8-tetrahydropyrido[4,3-b][1,4]thiazin-3-one] gave a pIC50 of 7.32.
`O=C1CO[C@H]2[C@H](CN(C(=O)N3CC(c4ccc(CC(F)(F)F)cc4)C3)CC2(F)F)N1` (single isomer, unassigned) [Example 5]: the pIC50 is 8.59.
As to `O=C1CO[C@H]2[C@H](CN(C(=O)N3CC(OCc4ccc(C(F)(F)F)cc4F)C3)CC2(F)F)N1` (single isomer, unassigned) [Example 3], the pIC50 is 7.95. This pIC50 is 0.64 log units lower than that of the compound before.
